According to US11098082B2, “Antigenic peptides and uses thereof for diagnosing and treating autism” (The Regents of the University of California, priority 2015, dated 2021):

Assays:
Assay type in all cases: binding, human
[1] = system: maternal autoantibodies; assay: validation peptide microarray incubated with maternal plasma samples (ASD vs TD mothers); details: for Number (%) Positive In ASD / Number Positive In ASD (n = 46): plasma of mothers of children with ASD, n = 46; for Number Positive In ASD (n = 46): peptide called positive (reactive) per sample; for Number (%) Positive In TD / Number Positive In TD (n = 21): plasma of mothers of typically developing children, n = 21; for binding by autoantibodies, ASD samples compared with TD samples: in words
[2] = system: autoantibodies present in a maternal sample; assay: STIP1 peptide ELISA with maternal plasma samples; details: plasma 1:400; for Final (absorbance, average minus blank): 450 nm; for Average (absorbance): 450 nm with 490 nm reference, duplicate
Text: The peptides of Table 2 were synthesized with a linker and biotinylated. In particular, each biotinylated peptide was biotin-SGSS-peptide-DKP with SGSS (SEQ ID NO: 121) as the spacer and a diketopiperazine (DKP) group at the C-terminus of the peptide. Pierce® NeutrAvidin® protein coated microwell plates (Thermo Scientific) were washed with PBST and excess buffer was removed from the wells. The biotinylated peptides were reconstituted in pure solvent (e.g., DMSO or DMF) or a solvent/water mixture. The reconstituted peptide was diluted […] in ultra pure water to a final concentration of 5 μg/ml. 100 μl of the diluted biotinylated peptide was dispensed into the wells and incubated for 1 hour at room temperature or overnight at 4° C. on a slow rocker. Reference wells were left uncoated but filled with buffer. Nonspecific binding sites were blocked by incubation with 200 μl of a 5% Pierce® Superblock™ PBS solution for 2 hours at room temperature. Subsequently, the plates were washed six times with PBST using an automated plate washer.
The following method adapted from Sanchez et al. (Cancer Chemother. Pharmacol., 66: 919-925 (2010)) was used to detect maternal antibodies against one or more of the peptides of the ELISA-based assay described above: Maternal plasma samples were obtained including samples predetermined to be reactive to the full-length antigens of the peptides in the assay. The test samples were diluted in sample diluent (e.g., 2.5% Pierce® Superblock™ in PBST) and 100 μl of each sample was added to the wells of the assay plate. All samples were analyzed in duplicate in both peptide-coated and uncoated wells. The diluted samples were incubated for 1 hour at room temperature. The plates were then washed six times with PBST. The labeled secondary antibody solution (e.g., horseradish peroxidase-conjugated goat anti-human IgG, Invitrogen) was added to the wells and incubated for 30 minutes at room temperature. The plates were again washed eight times with PBST. The plates were then washed with PBS without Tween twice. The BD Opt EIA™ substrate (BD Biosciences Pharmingen, San Diego, Calif.) was added to the wells and incubated at room temperature for 10 minutes. The STOP solution (2N H2SO4) was added and the plate was read at 450 nm using a reference filter at 490 nm.
In particular, four maternal plasma samples were tested for their reactivity to a STIP1 peptide having the amino acid sequence PPPPPPKKETKPEPM (SEQ ID NO:22) using the following peptide ELISA protocol: • 1. Bring all reagents to room temperature. • 2. Peptides were diluted in ultra pure water from peptide stock (1 mg/mL) to a final concentration of 5 μg/mL. • 3. Add 100 μl of each peptide to corresponding wells on 96-well NeutrAvidin coated plate. • 4. Incubate plate for 1 hour at room temperature. • 5. Wash plate six times with PBS with 0.05% Tween. • 6. Add 200 μl of 5% Superblock to each well and incubated for 2 hours at room temperature. • 7. Wash plate six times with PBS with 0.05% Tween. • 8. Dilute maternal plasma samples 1:400 in sample buffer (2.5% Superblock in PBS with 0.05% Tween). • 9. Add 100 μl of diluted plasma samples to wells and incubate for 1 hour at room temperature. • 10. Wash plate six times with PBS with 0.05% Tween. • 11. Dilute Goat Anti-Human antibody 1:2,500 in PBS with 0.05% Tween. • 12. Add 100 μl of diluted Goat Anti-Human antibody to wells and incubate for 30 minutes at room temperature. • 13. Wash plate eight times with PBS with 0.05% Tween and two times with PBS Neat. • 14. Add 100 μl of BD Opt EIA substrate to each well. • 15. Incubate plate in the dark for 10 minutes at room temperature. • 16. Add 50 μl of H2SO4 to each well to stop chemical reaction. • 17. Read plate on reduced setting on spectrophotometer at 450 nm with 490 nm reference.
The samples were run in duplicate and the absorbance values were averaged. […]

[3] = system: autoantibodies present in a maternal sample; assay: ELISA with the full-length STIP1 polypeptide; details: Sample No. 1190
[4] = Sample No. 99 (Medium Reactivity)
[5] = Sample No. 1190 (Highly Reactive)
[6] = Sample No. 1887 (Low Reactivity)

Row | Substance | Number (%) Positive In ASD [1] [%] | Number Positive In ASD (n = 46) [1] | Number (%) Positive In TD [1] [%] | Number Positive In TD (n = 21) [1] | binding by autoantibodies, ASD samples compared with TD samples [1] | other results
1 | PAAPPAAPALSAADT [SEQ ID NO: 28] | 41 | 19 | 29 | 6 | – | –
2 | TPKIVADKDYSVTAN [SEQ ID NO: 11] | 2 | 1 | 0 | 0 | only bound by autoantibodies when the microarrays were incubated with plasma samples obtained from mothers whose children had a diagnosis of ASD | –
3 | MAERKQSGKAAEDEE [SEQ ID NO: 45] | 22 | 10 | 5 | 1 | – | –
4 | IAPVAEEEATVPNNKIT [SEQ ID NO: 66] | 4 | 2 | 0 | 0 | only bound by autoantibodies when the microarrays were incubated with plasma samples obtained from mothers whose children had a diagnosis of ASD | –
5 | DCIIIVVSNPVDILT [SEQ ID NO: 12] | 11 | 5 | 0 | 0 | only bound by autoantibodies when the microarrays were incubated with plasma samples obtained from mothers whose children had a diagnosis of ASD | –
6 | KTISAKTHNSSLEYN [SEQ ID NO: 54] | 2 | 1 | 0 | 0 | only bound by autoantibodies when the microarrays were incubated with plasma samples obtained from mothers whose children had a diagnosis of ASD | –
7 | VDITSWYDGVREELE [SEQ ID NO: 38] | 26 | 12 | 14 | 3 | – | –
8 | PVAEEEATVPNNKIT [SEQ ID NO: 9] | 7 | 3 | 0 | 0 | only bound by autoantibodies when the microarrays were incubated with plasma samples obtained from mothers whose children had a diagnosis of ASD | –
9 | HNSSLEYNIFEGMEC [SEQ ID NO: 55] | 35 | 16 | 19 | 4 | – | –
10 | PPPPPPKKETKPEPM [SEQ ID NO: 22] | – | – | – | – | – | Final (absorbance, average minus blank) [2, 4]: 0.483; Average (absorbance) [2, 4]: 1.482; Final (absorbance, average minus blank) ([2]; Sample No. 142 (Negative)): 0.093; Average (absorbance) ([2]; Sample No. 142 (Negative)): 1.295; Final (absorbance, average minus blank) [2, 5]: 2.045; Average (absorbance) [2, 5]: 2.442; Final (absorbance, average minus blank) [2, 6]: 0.129; Average (absorbance) [2, 6]: 2.101
11 | full-length STIP1 polypeptide: full-length stress-induced phosphoprotein 1 (STIP1) polypeptide used in a comparison ELISA | – | – | – | – | – | absorbance value [3]: ~1.0
12 | LQTPKIVADKDYSVTAN [SEQ ID NO: 71] | 2 | 1 | 0 | 0 | only bound by autoantibodies when the microarrays were incubated with plasma samples obtained from mothers whose children had a diagnosis of ASD | –
13 | VDLGSMDEEEEIATP [SEQ ID NO: 21] | 13 | 6 | 5 | 1 | – | –
14 | VDVIEDKLKGEMMDL [SEQ ID NO: 3] | 15 | 7 | 10 | 2 | – | –
15 | VLLGVDLGSMDEEEE [SEQ ID NO: 20] | 30 | 14 | 19 | 4 | – | –
16 | VPRGLYDGPVCEVSV [SEQ ID NO: 60] | 17 | 8 | 5 | 1 | – | –
17 | VVPEPGSSLLTSFEK [SEQ ID NO: 36] | 4 | 2 | 0 | 0 | only bound by autoantibodies when the microarrays were incubated with plasma samples obtained from mothers whose children had a diagnosis of ASD | –
18 | MDLNDTFPEYKETIE (MDLNDTFPEYKETTE) [SEQ ID NO: 27] | 17 | 8 | 5 | 1 | – | –
19 | ETVEFDVVEGEKGAE [SEQ ID NO: 32] | 11 | 5 | 5 | 1 | – | –
